Test results taken from the NIST ThermoML archive (doi:10.1016/j.fluid.2010.04.016).
± gives the expanded uncertainty stated by the source.

Settings: Crystal; visual observation

| Compound | Normal melting temperature [°C] |
| --- | --- |
| CCCCCCCCCCO [decan-1-ol] | 7.04 ± 0.16 |
| CCCCCCCCO [octan-1-ol] | -15.4 ± 0.16 |
